The values below come from patent US4950675A, “Pyridine di-mevalono-lactones as inhibitors of cholesterol biosynthesis” (Warner-Lambert Company, priority 1988, dated 1990).

In one assay the test system is cholesterol synthesis. Kind of assay: AICS screen: plasma [14C]cholesterol after oral dosing of cholestyramine-fed rats (inhibition of cholesterol synthesis). The format is in vivo. The settings on record: male Sprague-Dawley rats fed 5% cholestyramine; for inhibition at 1 mg/kg: Rattus norvegicus. On the procedure:
The ability of compound s of the present invention to inhibit the biosynthesis of cholesterol was also measured by a method (designated AICS screen) which utilizes the procedure described by A. W. Alberts et al, Proc. Natl. Acad. Sci., (1980), 77, pp 3957-3961.
In this method male Sprague-Dawley rats (200 g body weight) previously fed 5% cholestyramine for three days were randomly divided into groups (N=5/group) and given a single dose of vehicle (controls) or compound by an oral gavage at the indicated doses. One hour after drug dosing, all rats were injected intraperitoneally with sodium[1-^14 C]-acetate (18.75 μCi/rat in 0.2 ml saline). After 50 minutes, blood samples were taken, plasma obtained by centrifugation, and plasma [^14 C] cholesterol measured after saponification and extraction.

Assay [1] concerns the target sterol synthesis by rat liver homogenate (HMG-CoA reductase). Kind of assay: CSX screen ("CSI" in Table 2): inhibition of sterol synthesis from 14C-acetate in rat liver homogenate. The format is biochemical. The settings on record: 50% inhibition of sterol synthesis over a one-hour period. Here is the method:
The ability of compound s of the present invention to inhibit the biosynthesis of cholesterol was measured by a method (designated CSX screen) which utilizes the procedure described by R. E. Dugan, et al, Archiv. Biochem. Biophys., (1972), 152, 21-27. In this method, the level of HMG-CoA enzyme activity in standard laboratory rats is increased by feeding the rats a chow diet containing 5% cholestyramine for four days, after which the rats are sacrificed.
The rat livers are homogenized, and the incorporation of […] into nonsaponifiable lipid by the rat liver homogenate is measured. The micromolar concentration of compound required for 50% inhibition of sterol synthesis over a one-hour period is measured, and expressed as an IC50 value.

Where a name gives a salt, the structure may show the parent alone.

As for `CCc1nc(CC)c(/C=C/C2CC(O)CC(=O)O2)c(-c2ccc(F)cc2)c1/C=C/C1CC(O)CC(=O)O1` (stereo not drawn) [6,6'-[2,6-diethyl-4-(4-fluorophenyl)-3,5-pyridinediyl]di[2,1-ethenediyl]bis[4α,6β(E)][tetrahydro-4-hydroxy-2H -pyran-2-one]], the inhibition at 1 mg/kg with cholesterol synthesis (Table 1, single oral gavage) was -3%.

For `CC(C)c1nc(C(C)C)c(/C=C/C2CC(O)CC(=O)O2)c(-c2ccc(F)cc2)c1/C=C/C1CC(O)CC(=O)O1` (stereo not drawn) [6,6'-[[2,6-bis(1-methylethyl)-4-(4-fluorophenyl)-3,5-pyridinediyl]di-1,2-ethenediyl]bis [4α,6B(E)] tetrahydro-4-hydroxy-2H-pyran-2-one]], the inhibition at 1 mg/kg with cholesterol synthesis (Table 1, single oral gavage) was -65%.

Compound `CCc1nc(CC)c(/C=C/C(O)CC(O)CC(=O)O)c(-c2ccc(F)cc2)c1/C=C/C(O)CC(O)CC(=O)O` (stereo not drawn) [[R*,S*(E)]7,7'-[2,6-diethyl-4-(4-fluorophenyl)-3,5-pyridinediyl]bis[3,5-dihydroxy-6-heptenoic acid, disodium salt]] yielded a half-maximal inhibitory concentration (IC50) in assay [1] of 32 nM. Moreover, the inhibition at 1 mg/kg in the assay on cholesterol synthesis (Table 2, single oral gavage) is -16%.

In turn, `CC(C)c1nc(C(C)C)c(C=CC(O)CC(O)CC(=O)[O-])c(-c2ccc(F)cc2)c1C=CC(O)CC(O)CC(=O)[O-].[Na+].[Na+]` (stereo not drawn) [[R*,S*(E)]-7,7'-[2,6-bis(1-methylethyl)-2,4-(4-fluorophenyl)-3,5-pyridinediyl]bis [3,5-dihydroxy-6-heptenoio acid, disodium salt]] came in with an IC50 in assay [1] of 5.6 nM. Moreover, the “AICS % Inhibition of Cholesterol Synthesis” value in the assay on cholesterol synthesis (Table 2, 1.0 mg/kg, single oral gavage) is on record as -21%.

Usually inhibition stands for the relative decrease from the control value, in per cent. For orientation: IC50 means the concentration that inhibits the measured activity by half.
